Measured values published in patent publication US20200261440A1, “ZINC IONOPHORES AND USES THEREOF” (THE UNIVERSITY OF QUEENSLAND, priority 2017, published 2020).
Marks after values point to notes of the source that are not given here.

Assays:
[1] = tested on: Methicillin-resistant Staphylococcus aureus (MRSA) strain USA300; test: MIC by broth microdilution (CLSI)
Description: GAS HKU16, MRSA USA300, VRE RBWH1, Klebsiella pneumoniae strain MS6771, E. coli strain MS8345 and Streptococcus pneumoniae strain 23F were grown in Todd-Hewitt broth (THB) or agar with 1% yeast extract (THY) [Todd, E. W. & Hewitt, L. F. A new culture medium for the production of antigenic streptococcal haemolysin. […] Bacteria were routinely grown at 37° C. in ambient air.
MICs were determined by broth microdilution in accordance to CLSI guidelines (“Methods for Dilution Antimicrobial Susceptibility Tests for Bacteria That Grow Aerobically”, Clinical and Laboratory Standards Institute) [Clinical and Laboratory Standards Institute. […] For MRSA, VRE, Klebsiella pneumoniae and E. coli the assays were performed in MHB, and for GAS and Streptococcus pneumoniae MHB+2.5% lysed horse blood (LHB) was used. The bacterial inoculum was prepared by direct colony suspension aiming for 2-8×10^5 colony forming units (CFU)/mL bacteria per well. Antibiotics/compounds were serially diluted two-fold across the 96-well plate, the last column contained no antibiotics/compounds. The inoculum was added to the plate containing antibiotic/compound and incubated for 16-24 h at 35+/−2° C. […] MIC assays were carried out in biological triplicates.
Using Clinical and Laboratory Standards Institute guidelines for antimicrobial sensitivity testing [Clinical and Laboratory Standards Institute.

[2] = tested on: Vancomycin-resistant Enterococci (VRE) clinical isolate RBWH1; test: MIC by broth microdilution (CLSI); type: cell-based, Enterococcus
Description: (§1) J. Path. Bact. […] Proc. Soc.
(§2) MIC assays were carried out in biological triplicates.
(§3) M100 Performance Standards for Antimicrobial Susceptibility Testing, 27th Edition.

VRE = test: Drop test assay, growth on THY agar; type: cell-based, Enterococcus; settings: PBT2 (1.5 μM), zinc(II) ions (400 μM)
Description: (§4) FIG. 1a illustrates growth of GAS, MRSA and VRE on THY agar in the presence or absence of PBT2 (1.5 μM) and zinc(II) ions (400 μM).
(§5) Bacteria were diluted from overnight cultures to get a starting OD600 of 0.01 in THY. Once the bacteria grew to an OD600 of 0.6, the culture were serially diluted in PBS and 5 μL of each dilution (undiluted, 10^−1, 10^−2, 10^−3, 10^−4, 10^−5) was plated on THY agar plates with or without zinc (400 μM) and/or PBT2 ([…]). Plates were incubated at 37° C. overnight. Drop tests were undertaken in biological triplicates.

MRSA = test: Drop test assay, growth on THY agar; type: cell-based, Staphylococcus aureus; settings: PBT2 (1.5 μM), zinc(II) ions (400 μM)
Description: as §4, §5

[3] = tested on: GAS strain HKU16 (Streptococcus pyogenes strain HKU16); test: microbe, parasite or virus in culture; type: cell-based
Description: as §1, §2, §3

GAS = test: Drop test assay, growth on THY agar; type: cell-based, Streptococcus pyogenes; settings: PBT2 (1.5 μM), zinc(II) ions (400 μM)
Description: as §4, §5

[4] = tested on: Klebsiella pneumoniae strain MS6771; test: MIC by broth microdilution (CLSI); type: cell-based
[5] = tested on: P. aeruginosa strain 253-43-C; test: MIC by broth microdilution (CLSI); type: cell-based, Pseudomonas aeruginosa
Description: They were obtained from Jan Bell, Australian Centre of Microbial Resistance Ecology (ACARE), University of Adelaide, Australia.
(§6) (2017)]. […] MIC assays were carried out in biological triplicates.

[6] = tested on: MCR-1 E. coli strain MS8345; test: MIC by broth microdilution (CLSI); type: cell-based, Escherichia coli; settings: for antibiotic sensitivity of resistant strain: MCR1-positive E. coli MS8345; for MIC: MCR-1 E. coli
Description: as §1
J Infect Dis. 1995 171:890-6). E. coli strain MS8345 is a MCR-1 resistant clinical isolate supplied by Prof. D. L. Paterson, University of Queensland Centre for Clinical Research.
as §6

Which results are given for `[Zn+2]` [Zinc(II) ion]?
MIC ([1]; MRSA USA300, substance alone): 3 mM; MIC ([2]; VRE RBWH1, substance alone): 3 mM; antibacterial activity (VRE): neither PBT2 nor zinc(II) ions (in the form of zinc chloride) displayed antibacterial activity; antibacterial activity (MRSA): neither PBT2 nor zinc(II) ions (in the form of zinc chloride) displayed antibacterial activity; MIC ([3]; GAS HKU 16, substance alone): 2 mM; antibacterial activity (GAS): neither PBT2 nor zinc(II) ions (in the form of zinc chloride) displayed antibacterial activity

How did the MIC ([1]; MRSA USA300, CQ: 1 μM) turn out when polymyxin B was run?
The MIC was 64 µg/mL.

And the MIC ([1]; MRSA USA300, CQ: 1 μM, Zinc: 32 μM)?
Its MIC is 2 µg/mL.

What about the MIC ([1]; MRSA USA300, PBT2: 0 μM, Zinc: 0 μM) of the same compound?
Its MIC is 64 µg/mL.

And the MIC ([1]; MRSA USA300, PBT2: 2 μM)?
Its MIC is 64 µg/mL.

And the MIC ([1]; MRSA USA300, PBT2: 2 μM, Zinc: 50 μM)?
The MIC was 2 µg/mL.

And the antibiotic resensitization ([1]; MRSA USA 300, RA-HQ-12+zinc(II) ions (ZnSO4))?
The antibiotic resensitization was “resensitize”.

And the MIC ([1]; MRSA USA300, Zinc: 50 μM)?
The MIC was 64 µg/mL.

What about the “antibiotic sensitivity of resistant strain” value (“antibiotic sensitivity” for short) ([1]; MRSA USA300, addition of sub-inhibitory PBT2+zinc(II) ions) of the same compound?
The value was “became sensitive”.

And the MIC ([1]; MRSA, RA-HQ-12: 3.5 μM, Zn: […], oxacillin with 2% NaCl)?
Its MIC is 4^# μg/mL.

And the MIC ([1]; MRSA, RA-HQ-12: 3.5 μM, oxacillin with 2% NaCl)?
Its MIC is 32 µg/mL.

What about the MIC ([4]; K. pneumoniae, RA-HQ-12: 16 μM, Zn: 64 μM) of the same compound?
Its MIC is 4^# μg/mL.

What about the antibiotic resensitization ([4]; Klebsiella pneumoniae MS6771, RA-HQ-12+zinc(II) ions (ZnSO4)) of the same compound?
Its antibiotic resensitization is “resensitize”.

What about the “antibiotic sensitivity” value ([4]; Klebsiella pneumoniae MS6771, addition of sub-inhibitory PBT2+zinc(II) ions) of the same compound?
Its value is “became sensitive”.

And the “antibiotic sensitivity” value ([4]; Klebsiella pneumoniae MS6771, combination with PBT2, no zinc)?
The value was “resulted in sensitivity”.

What about the MIC ([4]; Klebsiella pneumoniae, CQ: 0 μM, Zinc: 0 μM) of the same compound?
The MIC was 64 µg/mL.

And the MIC ([4]; Klebsiella pneumoniae, CQ: 64 μM)?
Its MIC is 2 µg/mL.

What about the MIC ([4]; Klebsiella pneumoniae, CQ: 64 μM, Zinc: 256 μM) of the same compound?
The MIC was 2 µg/mL.

And the MIC ([4]; Klebsiella pneumoniae, PBT2: 0 μM, Zinc: 0 μM)?
Its MIC is 32 to 64 µg/mL.

What about the MIC ([4]; Klebsiella pneumoniae, Zinc: 256 μM (CQ panel)) of the same compound?
Its MIC is 32 to 64 µg/mL.

And the MIC ([4]; Klebsiella pneumoniae, Zinc: 256 μM (PBT2 panel))?
Its MIC is 32 to 64 µg/mL.

And the MIC ([2]; VRE RBWH1, CQ: 2.5 μM)?
The MIC was 64 µg/mL.

What about the MIC ([2]; VRE RBWH1, CQ: 2.5 μM, Zinc: 32 μM) of the same compound?
Its MIC is 0.5 to 1 µg/mL.

What about the MIC ([2]; VRE RBWH1, PBT2: 1.75 μM) of the same compound?
The MIC was 64 µg/mL.

What about the MIC ([2]; VRE RBWH1, PBT2: 1.75 μM, Zinc: […]) of the same compound?
The MIC was 0.5 µg/mL.

What about the antibiotic resensitization ([2]; VRE RBWH1, RA-HQ-12+zinc(II) ions (ZnSO4)) of the same compound?
Its antibiotic resensitization is “resensitize”.

And the “antibiotic sensitivity” value ([2]; VRE RBWH1, addition of sub-inhibitory PBT2+zinc(II) ions)?
Its value is “became sensitive”.

And the MIC ([2]; VRE, RA-HQ-12: 3.5 μM)?
The MIC was 16 µg/mL.

And the MIC ([2]; VRE, RA-HQ-12: 3.5 μM, Zn: […])?
The MIC was 4^# μg/mL.

And the antibiotic resensitization ([3]; GAS HKU16, RA-HQ-12+zinc(II) ions (ZnSO4))?
The antibiotic resensitization was “resensitize”.

And the “antibiotic sensitivity” value ([3]; GAS HKU16, addition of sub-inhibitory PBT2+zinc(II) ions)?
The value was “became sensitive”.

And the MIC ([3]; GAS, RA-HQ-12: 3.5 μM, Zn: […])?
The MIC was 4^# μg/mL.

What about the MIC ([3]; Streptococcus pyogenes HKU16, CQ: 0 μM, Zinc: 0 μM) of the same compound?
Its MIC is 64 µg/mL.

And the MIC ([3]; Streptococcus pyogenes HKU16, CQ: 6 μM)?
The MIC was 32 µg/mL.

What about the MIC ([3]; Streptococcus pyogenes HKU16, CQ: 6 μM, Zinc: 80 μM) of the same compound?
Its MIC is 1 µg/mL.

What about the MIC ([3]; Streptococcus pyogenes HKU16, PBT2: 0 μM, Zinc: 0 μM) of the same compound?
The MIC was 64 to 128 µg/mL.

What about the MIC ([3]; Streptococcus pyogenes HKU16, PBT2: 4.75 μM) of the same compound?
Its MIC is 32 µg/mL.

What about the MIC ([3]; Streptococcus pyogenes HKU16, PBT2: 4.75 μM, Zinc: […]) of the same compound?
The MIC was 1 to 2 µg/mL.

What about the MIC ([3]; Streptococcus pyogenes HKU16, Zinc: 80 μM) of the same compound?
Its MIC is 64 µg/mL.

What about the MIC ([3]; Streptococcus pyogenes HKU16, Zinc: […] (PBT2 panel)) of the same compound?
Its MIC is 64 µg/mL.

And the MIC ([5]; PBT2)?
Its MIC is 1 µg/mL.

What about the MIC ([5]; Untreated) of the same compound?
Its MIC is 8 µg/mL.

And the “antibiotic sensitivity” value ([6]; addition of sub-inhibitory PBT2+zinc(II) ions)?
Its value is “became sensitive”.

What about the “antibiotic sensitivity” value ([6]; combination with PBT2, no zinc) of the same compound?
The value was “resulted in sensitivity”.

And the MIC ([6]; CQ: 0 μM, Zinc: 0 μM)?
Its MIC is 8 µg/mL.

What about the MIC ([6]; CQ: 5 μM) of the same compound?
The MIC was 2 to 4 µg/mL.

What about the MIC ([6]; CQ: 5 μM, Zinc: 25 μM) of the same compound?
The MIC was 1 µg/mL.

What about the MIC ([6]; PBT2: 0 μM, Zinc: 0 μM) of the same compound?
Its MIC is 8 µg/mL.

What about the MIC ([6]; PBT2: 7 μM) of the same compound?
The MIC was 1 µg/mL.

And the MIC ([6]; PBT2: 7 μM, Zinc: 200 μM)?
The MIC was 0.5 µg/mL.

And the MIC ([6]; Zinc: 25 μM)?
Its MIC is 8 µg/mL.

What about the MIC ([6]; Zinc: 200 μM) of the same compound?
Its MIC is 8 µg/mL.
